Assay results as given in ChEMBL document CHEMBL4184196, “Design, synthesis, and evaluation of polyamine-memantine hybrids as NMDA channel blockers” (Bioorg Med Chem, 2018).
Structures can show the parent of a compound that is named as a salt. Active and inactive are the calls of the source. The calls are words filed in the database; no cut-off is given here.

Legend:
Type in all cases: cell-based
[1] = biological target: Glutamate NMDA receptor; Grin1/Grin2a (Rattus norvegicus, UniProt P35439+Q00959); assay: Antagonist activity at rat brain GluN1/GluN2A receptor expressed in Xenopus laevis oocytes assessed as inhibition of glutamate/glycine-induced channel current by two electrode voltage clamp method
[2] = biological target: Glutamate NMDA receptor; Grin1/Grin2b (Rattus norvegicus, UniProt P35439+Q00960); assay: Antagonist activity at rat brain GluN1/GluN2B receptor expressed in Xenopus laevis oocytes assessed as inhibition of glutamate/glycine-induced channel current by two electrode voltage clamp method
[3] = biological target: Glutamate NMDA receptor; Grin1/Grin2a (Rattus norvegicus) (UniProt P35439+Q00959); assay: Antagonist activity at rat brain GluN1/GluN2A receptor expressed in Xenopus laevis oocytes assessed as inhibition of glutamate/glycine-induced channel current at 1 uM by two electrode voltage clamp method
[4] = biological target: Glutamate NMDA receptor; Grin1/Grin2b (Rattus norvegicus) (UniProt P35439+Q00960); assay: Antagonist activity at rat brain GluN1/GluN2B receptor expressed in Xenopus laevis oocytes assessed as inhibition of glutamate/glycine-induced channel current at 1 uM by two electrode voltage clamp method

Row | SMILES | IC50 [1] | IC50 [2] | inhibition [3] | inhibition [4]
1 | CC12CC3CC(C)(C1)CC(N)(C3)C2 [MEMANTINE HYDROCHLORIDE] | 1380 nM |  |  | 
2 | CC12CC3CC(C)(C1)CC(NCCCCNCCCCN)(C3)C2 | 656 nM | 587 nM |  | 
3 | CC12CC3CC(C)(C1)CC(NCCCCNCCCCNC(=N)N)(C3)C2 | 379 nM | 433 nM |  | 
4 | CC12CC3CC(C)(C1)CC(NCCCCN)(C3)C2 |  |  | Active | Active
5 | CC12CC3CC(C)(C1)CC(NCCCCN=C(N)N)(C3)C2 |  |  | Active | Active
6 | CC12CC3CC(C)(C1)CC(NCCCCCCCCCN)(C3)C2 |  |  | Active | Active
7 | CC12CC3CC(C)(C1)CC(NCCCCNCc1ccccc1)(C3)C2 |  |  | Active | Active
